According to patent publication US11873298B2, “Compounds and uses thereof” (JANSSEN PHARMACEUTICA NV, priority 2017, dated 2024):
Where “and” joins values, the source holds several entries; their conditions need not be identical. Equal entries are not always repeated.

How the values were obtained:
SCD5 = biological target: T1, SCD5 (Homo sapiens, UniProt Q86SK9); experiment: Growth inhibition of humanized yeast strain expressing SCD5 as sole desaturase; type: cell-based; details: humanized yeast strain expressing SCD5
T1 construct: host or cells: S. cerevisiae ole1Δ strain (W303 pdr1Δ pdr3Δ background), plasmid pRS316 with TDH3 promoter and CYC1 terminator
T1 sequence (Q86SK9 1-330): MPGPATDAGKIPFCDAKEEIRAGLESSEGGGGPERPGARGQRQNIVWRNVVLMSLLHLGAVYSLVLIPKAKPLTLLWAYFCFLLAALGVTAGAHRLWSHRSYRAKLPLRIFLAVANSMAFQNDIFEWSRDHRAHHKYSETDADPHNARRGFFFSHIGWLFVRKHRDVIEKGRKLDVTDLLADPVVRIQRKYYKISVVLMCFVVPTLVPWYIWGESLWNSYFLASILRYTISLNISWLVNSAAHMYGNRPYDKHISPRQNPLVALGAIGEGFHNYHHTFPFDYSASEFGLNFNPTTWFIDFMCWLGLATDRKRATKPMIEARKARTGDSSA
Outline: (§1)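 OD600 growth read-out. ole1Δ yeast, pdr1Δ pdr3Δ, with Ole1/SCD1/SCD5 on a plasmid; SX-Ura media throughout; 2× cell density 0.02 in CSM-Galactose; DMSO compound dilutions; humidified 30° C.; Ole1 stopped at 24 h, SCD1/SCD5 at 40 h.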

[1] = system: yeast strains expressing the human α-synuclein; experiment: Yeast α-synuclein toxicity rescue assay (OD600 growth); details: 40 h; for EC50: read-out: α-Syn EC50; for Emax: read-out: α-Syn Emax
Excerpt: The induced expression of α-synuclein and ApoE4 confers cytotoxicity, thus enabling the identification of compounds that can restore cell viability. This instantaneous/synchronous induction of α-synuclein and ApoE4 can be achieved due to the following expression control. In glucose-containing media, gene expression from the GAL1 promoter is ‘off’ and actively repressed by additional epigenetic factors. In raffinose, expression is ‘off’, but the promoter not actively repressed. Upon transition to galactose-containing media, the promoter is instantaneously turned ‘on’ to achieve robust and synchronous induction of α-synuclein or ApoE4 expression. This highly regulated induction provides a robust window for the determination of both efficacy (amplitude of protective effect) and potency (concentration of protective effect) of cytoprotective compounds.
Re-suspended compound stocks were subsequently arrayed into 384 well compound plates using automated pipetting. All other wells not receiving stock compound were filled with 10 μL of 100% DMSO using an automated plate filler (Multidrop Combi). An 11 point, 2-fold serial dilution was then performed using the robotic platform. Compound assay plates were covered with foil and stored at −20° C. until use.
Each strain was handled according to standard protocols and cultured in media composed of CSM (complete synthetic media), YNB (yeast nitrogenous base), and a 2% (w/v) carbon source (either glucose, raffinose, or galactose).
In a standard yeast assay, a single-use aliquot of cells was thawed on ice and diluted into CSM/glucose (5 mL). Cultures were grown for 8 hours at 30° C. This pre-growth enables the yeast to exit the thaw and begin to grow without expressing aSyn or ApoE4. After 8 hours, cell density (OD600) was determined and cultures diluted to an OD600 of 0.01 in CSM/raffinose for an overnight culture phase at 30° C. During this period, the active glucose repression of the GAL1 promoter was relieved; however, expression of the α-Syn/ApoE4 genes were not yet induced. After ˜16 hours of growth, cultures attain an OD600 of 0.4-0.8 and were ready to apply to assay plates containing compound.
Compound profiling assays were executed in clear-bottom 384 well plates. First, compound plates were thawed at room temperature for 45′, centrifuged at 1,000×g for 1 minute, and the foil removed. Clear 384 well assay plates were then filled with 15 μL of CSM/galactose. […] The pin tool was washed iteratively with both 50% DMSO and 100% ethanol between each assay plate. After delivering compound to each assay plate, the overnight CSM/raffinose aSyn or ApoE4 cultures were added at a 2X cell density (0.04 for aSyn and 0.08 for ApoE4) in CSM/galactose to achieve a final assay OD600 of 0.02 and 0.04 for aSyn and ApoE, respectively. The cultures (15 μL per well) were then dispensed to the compound -containing 384 well assay plates using an automated plate filler. Plates were incubated in a humidified 30° C. incubator for 40 or 24 hours for aSyn and ApoE4, respectively. The ODsoo of each assay plate was then read with a microplate reader (e.g., Perkin Elmer Envision).
The efficacy and potency of compounds were calculated according to the following. Raw data (OD600 values) were first background corrected to account for OD600 contributed by the plate and media itself. The efficacy (percent above DMSO, herein referred to as “Emax”) was calculated according to the equation: (Experimental well−DMSO control well)/(DMSO control well)*100. […] Normalized dose-response data was fit with a logistic regression curve using Spotfire (TIBCO), or similar curve-fitting software package. EC50 values were then reported along with EMax to provide both efficacy and potency measures for each analog and enable further compound design.

Ole1 = biological target: T2, Ole1 (Saccharomyces cerevisiae, UniProt P21147); experiment: Growth inhibition of yeast strain expressing Ole1 as sole desaturase; type: cell-based; details: yeast strain expressing Ole1 as sole desaturase
T2 construct: expressed in transfected cells; host or cells: S. cerevisiae ole1Δ strain (W303 pdr1Δ pdr3Δ background), plasmid pRS316 with TDH3 promoter and CYC1 terminator
T2 sequence (P21147 1-510): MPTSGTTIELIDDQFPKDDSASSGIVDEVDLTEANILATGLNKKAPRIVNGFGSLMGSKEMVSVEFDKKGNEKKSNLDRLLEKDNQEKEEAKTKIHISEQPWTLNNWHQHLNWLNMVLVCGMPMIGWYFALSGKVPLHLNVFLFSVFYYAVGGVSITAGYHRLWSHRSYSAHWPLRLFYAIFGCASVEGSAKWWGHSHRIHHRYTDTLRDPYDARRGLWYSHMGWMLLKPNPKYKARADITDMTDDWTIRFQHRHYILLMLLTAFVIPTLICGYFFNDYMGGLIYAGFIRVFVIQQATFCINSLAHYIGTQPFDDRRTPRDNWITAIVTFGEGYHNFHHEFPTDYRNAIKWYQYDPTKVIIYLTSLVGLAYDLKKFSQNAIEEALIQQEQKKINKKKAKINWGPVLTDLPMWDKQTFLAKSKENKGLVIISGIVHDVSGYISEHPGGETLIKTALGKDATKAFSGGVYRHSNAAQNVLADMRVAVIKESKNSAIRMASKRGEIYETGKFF
Outline: as §1

SCD1 = biological target: T3, SCD1 (Homo sapiens, UniProt O00767); experiment: Growth inhibition of humanized yeast strain expressing SCD1 as sole desaturase; type: cell-based; details: humanized yeast strain expressing SCD1
T3 construct: host or cells: S. cerevisiae ole1Δ strain (W303 pdr1Δ pdr3Δ background), plasmid pRS316 with TDH3 promoter and CYC1 terminator
T3 sequence (O00767 1-359): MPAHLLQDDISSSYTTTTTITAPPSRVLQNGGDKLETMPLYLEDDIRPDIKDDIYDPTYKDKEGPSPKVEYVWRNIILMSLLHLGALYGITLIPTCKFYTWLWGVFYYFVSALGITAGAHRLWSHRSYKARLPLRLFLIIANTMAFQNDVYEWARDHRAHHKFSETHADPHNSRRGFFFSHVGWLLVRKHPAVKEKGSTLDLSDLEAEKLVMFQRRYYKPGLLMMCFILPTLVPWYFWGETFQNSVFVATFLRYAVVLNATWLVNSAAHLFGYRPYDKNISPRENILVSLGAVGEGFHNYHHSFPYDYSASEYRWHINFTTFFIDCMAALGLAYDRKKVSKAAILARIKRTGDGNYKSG
Outline: as §1

| SMILES | IC50 (SCD5) [µM] | SCD5 % Max Inhibition (SCD5) | EC50 [1] [nM] | Emax [1] [%] | IC50 (Ole1) [µM] | OLE1 % Max Inhibition (Ole1) | IC50 (SCD1) [µM] | SCD1 % Max Inhibition (SCD1) [%] |
| --- | --- | --- | --- | --- | --- | --- | --- | --- |
| Cc1nn(C)c2cc(-c3noc(C4CCN(C(=O)CNC(=O)c5ccccc5)CC4)n3)cnc12 [Compound 137] | 22.3 | 50.61% | 1050 | 376 | > 45 | 96.83% | > 45 | 90.19 |
| CCOc1cnc(-c2noc(C3CCN(C(=O)CN4Cc5ccccc5C4=O)CC3)n2)cc1OC [Compound 147] | > 45 | 86.70% | 17900 | 453 | > 45 | 9.34% | > 45 | 74.14 |
| COc1ccc(-c2noc(C3CCN(C(=O)CNC(=O)c4ccccc4OC)CC3)n2)cc1OC [Compound 144] | > 45 | 84.27% | 521 | 537 | > 45 | 100.96% | > 45 | 79.00 |
| Cc1nn(C)c2cc(-c3noc(N4CCN(C(=O)CNC(=O)c5ccccc5)CC4)n3)ccc12 [compound 102] | > 45 |  | 284 | 411 | > 45 |  | > 45 |  |
| CCN1CCOc2cc(-c3noc(C4CCN(C(=O)CNC(=O)c5ccccc5)CC4)n3)ccc21 [Compound 110] | > 45 | 65.07% | 4490 | 374 | > 45 | 96.31% | > 45 | 66.85 |
| CCOc1ccc(-c2noc(C3CCN(C(=O)[C@H]4CN(c5ccccc5)C(=O)O4)CC3)n2)cc1OC [Compound 148] | > 45 | 86.53% | 13700 | 258 | > 45 | 99.90% | > 45 | 79.55 |
| O=C(NCC(=O)N1CCC(c2nc(-c3ccc4cn[nH]c4c3)no2)CC1)c1ccccc1 [compound 88] | > 45 |  | 9040 | 130 | > 45 |  | 33.5 |  |
| COc1ccc(-c2noc(C3CCN(C(=O)C(C)(C)NC(=O)c4ccccc4)CC3)n2)cc1OC [Compound 29] | > 45 | 74.10% | 13900 | 38 | > 45 | 91.00% | > 45 | 69.52 |
| Cc1nn(C)c2cc(-c3noc(C4CCN(C(=O)C5CC(=O)N(c6ccccc6)C5)CC4)n3)ccc12 (stereo not drawn) [compound 89] | > 45 |  | 165 | 580 | > 45 |  | > 45 |  |
| CCOc1ccc(-c2noc(C3CCN(C(=O)C(CO)N4Cc5ccccc5C4=O)CC3)n2)cc1OC (stereo not drawn) [Compound 128] | > 45 | 1.89% and 3.32% | 252 | 306 | > 45 | 81.43% and 60.60% | > 45 |  |
| Cn1c(=O)n(C)c2cc(-c3noc(C4CCN(C(=O)CNC(=O)c5ccccc5)CC4)n3)ccc21 [Compound 122] | > 45 | 90.04% | 139 | 414 | > 45 | 109.89% | > 45 | 92.73 |
